Experimental data from patent US12318400B2, “Brown and beige adipocyte activating agent containing D-allulose as active ingredient” (NATIONAL UNIVERSITY CORPORATION KAGAWA UNIVERSITY, priority 2018, dated 2025).
“Also recorded” adds a separate entry of the source.

Assays:
brown adipocytes (BAT) = test: Example 1: high fat diet mice given 2% D-allulose drinking water, body weight, blood glucose and brown adipocytes; format: in vivo
Protocol: (§1) The influence of administration of D-allulose, one of rare sugars, on brown adipocytes (BAT: abbreviation of brown adipose tissue) was studied. The experiment was performed using 6-week mice and the mice were divided into 3 groups, each group having 5 mice. The treatment was made as follows for 8 weeks. • (1) A group of normal diet and drinking of water (Normal food) • (2) A group of high fat diet and drinking of water (HFD) • (3) A group of high fat diet and drinking of water containing 2% D-allulose (D-allulose) (HFD+2% D-allulose) 2. Evaluation item: • (1) Transition of Body Weight • Transition of Blood Glucose • (2) Size and weight of brown adipocytes under the scapula • (3) Pathological evaluation of the morphological change in brown adipocytes • (4) Evaluation of UCP-1, PPAR-α, and PGC-1α expression levels as activation of brown adipocytes 3.

UCP-1, PPAR-α, PGC-1α = test: Example 1: expression levels of UCP-1, PPAR-α and PGC-1α as activation of brown adipocytes; format: in vivo, mice; settings: HFD+2% D-allulose vs HFD
Protocol: as §1, with “In Examples of the present invention, activation of brown adipocytes was evaluated by the expression level of UCP-1, PPAR-α, or PGC-1α. The influence” for “The influence”

type 2 diabetic patients = test: Example 2: human clinical test of D-allulose (D-psicose) in type 2 diabetic patients; format: in vivo
Text: Type 2 diabetic patients unable to get sufficient effects by any of the following treatments (HbA1c: 6.5% or more) […] • 1) Only diet therapy and exercise therapy • 2) Drug therapy in addition to diet therapy and exercise therapy <Exclusion Standards> • 1) Patients having a contraindication to D-allulose (D-psicose) administration • 2) Patients who are participating in another clinical trial • 3) Pregnant women, parturients, lactating women, or women who may be pregnant • 4) Patients having 8% or more HbA1c and poor in blood glucose control • 5) Patients recognized to have severe renal dysfunction (serum creatinine level: 1.5 mg/dl or more) • 6) Patients having another severe complication <Experimenting Method> D-allulose (D-psicose) powders: provided as sticks each containing 5 g/pack (product of Rare Sweet) It was orally administered with 5 g per dose three times a day. Twelve type 2 diabetic patients (4 male cases, 8 female cases) who could be observed for 3 months were compared for general findings and blood test before administration and 12 weeks after administration (Wilcoxon signed rank test).

[1] = system: brown adipose tissue (BAT); format: in vivo, mice
Protocol: FIG. 10 is a drawing for describing the procedure (protocol) of the experiment of Example 3. Mice are divided into two groups, with one group having five mice. Eight-week-old mice of each group are loaded with a high fat diet (HFD). From four weeks after loading with HFD, one of the groups is loaded with HFD continuously. To the other group, D-allulose (0.2 mg/body weight g/day), in addition to HFD, is administered to the stomach by a sonde. Until week 10, the body weight, food intake, water intake, and blood glucose level are monitored. Glucose was intraperitoneally administered and the blood glucose level after 0, 15, 30, 60, 90, and 120 minutes were measured.

beige adipocytes = test: Example 3: marker expression in beige adipocytes of HFD-loaded mice after D-allulose; format: in vivo
Protocol: (§2) (Purpose) The influence of D-allulose administration to mice on their brown adipose tissue is confirmed. In addition, differentiation of beige adipocytes is studied with a change in UCP-1 expression or the like as a marker. Mice are divided into two groups, each group having five mice. Eight-week-old mice of each group are loaded with a high fat diet (HFD). From four weeks after loading with HFD, one of the groups is loaded with HFD continuously. To the other group, D-allulose (0.2 mg/body weight g/day) together with HFD is administered to the stomach by a sonde. Until week 10, the body weight, food intake, water intake, and blood glucose level are monitored. The administration of D-allulose has a possibility of contributing a weight loss by inducing beige adipocytes and activating brown adipocytes. • 9) With regard to the details of the induction of beige adipocytes and the activation of brown adipocytes caused by D-allulose administration, expression of UCP-1 and Prdm16 which are genes involved in thermogenesis, Pgcl-α and Tfam which are genes reflecting the mitochondrial function of organelle involved in thermogenesis, and PPARγ which is a gene related to the differentiation of fat are investigated and the results are shown in FIG. 19.

brown adipocytes = test: Example 3: marker expression in brown adipocytes of HFD-loaded mice after D-allulose; format: in vivo
Protocol: as §2

[2] = system: cell line derived from a single clone from BAT of the adult supraclavicular fossa; test: Differentiation induction into beige adipocytes in cells (BAT-protocol, WAT-protocol) with addition of D-allulose; format: cell-based
Text: FIG. 21 is a drawing for describing, with regard to an experiment using cells (a single-clone-derived cell strain is established from BAT of adult supraclavicular fossa portion and is used as a research model of differentiation induction into beige adipocytes), two protocols, that is, BAT-protocol and WAT-protocol, for inducing beige adipocytes. FIG. 22 is a drawing for describing, in an experiment using cells, protocols including two protocols, that is, BAT-protocol and WAT-protocol, for inducing beige adipocytes and further including addition of D-allulose. […] They are presumed to participate in the activation of brown adipocytes. • 10) FIG. 20 is a drawing for describing two protocols for inducing beige adipocytes, that is, BAT-protocol and WAT-protocol used in an experiment using cells (a cell line derived from a single clone from BAT of the adult supraclavicular fossa is established and used as a research model of the differentiation induction into beige adipocytes). FIG. 21 is a drawing for describing a protocol including two protocols for inducing beige adipocytes, that is, BAT-protocol and WAT-protocol and further including addition of D-allulose in an experiment using cells.

[3] = 6-week mice, HFD+2% D-allulose water, 8 weeks, vs HFD group
[4] = after administration vs before administration
[5] = before vs 12 weeks after administration, 5 g three times a day
[6] = HFD mice, D-allulose administered group
[7] = classical brown adipose tissue, HFD-loaded mice
[8] = presence or absence of D-allulose

Compound: O=C(CO)[C@H](O)[C@H](O)[C@H](O)CO [D-allulose]
- Transition of blood glucose (brown adipocytes (BAT); [3]): a decrease in blood glucose was recognized
- Transition of body weight (brown adipocytes (BAT); [3]): a decrease in body weight was observed
- Size and weight of brown adipocytes under the scapula (brown adipocytes (BAT); HFD+2% D-allulose, 8 weeks, vs HFD group): an increase in brown adipocytes was recognized
- Pathological evaluation of the morphological change in brown adipocytes (brown adipocytes (BAT); HFD+2% D-allulose, tissue staining, vs HFD group (steatosis)): improved to have almost a normal state; also recorded: almost morphologically similar to that of the normal diet intake group
- PGC-1α expression level (UCP-1, PPAR-α, PGC-1α): induced more strongly
- PPAR-α expression level (UCP-1, PPAR-α, PGC-1α): induced more strongly
- UCP-1 expression level (UCP-1, PPAR-α, PGC-1α): induced UCP-1 further
- TNF-α level (type 2 diabetic patients; 2 months after administration): significant decrease
- Body weight decrease on average (type 2 diabetic patients; 5 g three times a day orally, 3 months after administration, 12 patients): 1 kg
- Body weight (type 2 diabetic patients; 5 g three times a day orally, after 3 months): significant decrease in body weight
- MCP-1 level (type 2 diabetic patients; [4]): significantly decreased
- TNF-α level (type 2 diabetic patients; [4]): significantly decreased
- GA (type 2 diabetic patients; [5]): No significant difference
- HbA1c (type 2 diabetic patients; [5]): No significant difference
- adiponectin (type 2 diabetic patients; [5]): No significant difference
- leptin (type 2 diabetic patients; [5]): No significant difference
- Increasing degree of body weight ([1]; HFD mice, D-allulose 0.2 mg/body weight g/day by sonde, from week 2 after administration is started): lowers significantly
- Fasting blood glucose level ([1]; HFD mice, D-allulose 0.2 mg/body weight g/day, from week 3 after administration is started): a reduction in fasting blood glucose level is observed
- Area of brown adipocytes (BAT) [1, 6]: increase
- Weight of brown adipocytes (BAT) [1, 6]: increase
- Blood glucose level in the glucose loading test ([1]; after 10 weeks, glucose intraperitoneally, after 90 and 120 minutes, vs control group): significantly decreases
- Food intake ([1]; mouse, in vivo): no significant change
- Water intake ([1]; mouse, in vivo): no significant change
- UCP-1 mRNA expression (beige adipocytes; HFD-loaded mice): significantly increased
- UCP-1 protein expression (beige adipocytes; HFD-loaded mice): significantly increased
- PPARγ gene expression (beige adipocytes; gene panel): increased
- Pgcl-α gene expression (beige adipocytes; gene panel): increased
- Prdm16 gene expression (beige adipocytes; gene panel): increased
- Tfam gene expression (beige adipocytes; gene panel): increased
- UCP-1 gene expression (beige adipocytes; gene panel): increased
- Prdm16 gene expression (brown adipocytes; brown adipocytes, gene panel): increase
- Tfam gene expression (brown adipocytes; brown adipocytes, gene panel): increase
- UCP-1 gene expression (brown adipocytes; brown adipocytes, gene panel): increase
- UCP-1 mRNA expression (brown adipocytes; [7]): increased
- UCP-1 protein expression (brown adipocytes; [7]): increased
- Expression of all the markers ([2]; D-allulose administered group, markers UCP-1, Prdm16, Pgc-1α, tfam, cox8b, PPARγ): significantly increased
- PPARγ expression ([2]; WAT-protocol): enhances the expression
- Pgc-1α expression ([2]; WAT-protocol): enhances the expression
- Prdm16 expression ([2]; WAT-protocol): enhances the expression
- UCP-1 protein expression ([2]; WAT-protocol): slightly enhances
- oil-red-O (fat staining) ([2]; addition of D-allulose to the differentiation inducing protocol): promotes
- PPARγ expression ([2]; both differentiation protocols): enhances expression of PPARγ
- PPARγ expression [2, 8]: increased
- UCP-1 expression [2, 8]: increased
